Experimental data taken from US8946291B2, “Compositions and methods for treating pigmentary conditions and melanoma” (The United States of America, as represented by the …, priority 2008, dated 2015).

Experiments:
DCT promoter = assay: Luciferase assay of DCT promoter in HeLa cells; type: cell-based, human; conditions: forskolin (data not shown)
Method: (§1) B16 melanoma cells or HeLa cells were seeded in 24-well dishes and were transfected with 0.3 μg of the luciferase reporter plasmid and 0.05 μg of pCMVβGal (Promega, Madison, Wis., USA) to control the variability of transfection efficiency. In some experiments, SOX9 was over-expressed using 0.1 μg of the pcDNA3 encoding SOX9, or was silenced with SOX9 siRNA (100 nM). Empty pcDNA3 or siRNA scrambles were used as controls depending on the experiments. All transfections were made with Lipofectamine (Invitrogen) according to the instructions of the manufacturer. Thirty-six h later, cells were washed with a saline phosphate buffer and lysed with reporter lysis buffer (Promega). Soluble extracts were harvested and assayed for luciferase and β-galactosidase activities. All transfections were repeated at least 3 times using different plasmid preparations and gave similar results. The pMITF wild-type and mutants, pDCT, pTYR, and pCRE constructs used were described previously (26, 43, 59).

TYR promoter = assay: Luciferase assay of TYR promoter in HeLa cells; type: cell-based, human; conditions: forskolin (data not shown)
Method: as §1

SOX9 [1] = assay: SOX9 protein expression in normal human melanocytes (metabolic labeling, immunoblotting, immunocytochemistry); type: cell-based; conditions: for SOX9 regulation in human melanocytes: statement in the discussion
Method: Cultures in 100 mm dishes were solubilized in […] mammalian protein extraction reagent (Pierce Biotechnology, Rockford, Ill., USA) and Protease Inhibitor cocktail (Roche, Mannheim, Germany). Protein concentrations of extracts were measured using the BCA protein assay kit (Pierce, Rockford, Ill., USA). Cell extracts (20 μg) were separated on 8-16% gradient SDS polyacrylamide gels (Invitrogen). After electrophoresis, proteins were transferred electrophoretically from the gels to Invitrolon PVDF transfer membranes (Invitrogen). The filters were incubated with antibodies to SOX9 (rabbit 1:500; Abeam, Cambridge, UK), SOX10 (goat 1:200; Santa Cruz, Santa Cruz, Calif., USA), DCT (1:2,000; (22)), Tyrosinase (rabbit 1:10,000; (22)), or GAPDH (rabbit 1:10,000, Santa Cruz) for 1 h at 23° C. to overnight at 4° C. (depending on the antibody) and were then incubated with horseradish peroxidase-linked anti-rabbit, anti-mouse or anti-goat whole antibodies (at 1:1,0000, GE Healthcare, Buckinghamshire, UK) at room temperature for 1 h. Antigens were detected using ECL-plus Western Blotting Detection System (GE Healthcare). Blots were quantitated using Scion Image Software (Scion Corp., Frederick, Md., USA). Each experiment was performed at least in triplicate.
Melanocyte cultures in two well Lab-Tek chamber slides (Nalge Nune International Corp., Naperville, Ill., USA) were processed for indirect fluorescence to detect the expression of proteins using primary antibodies to SOX9 (rabbit 1:50, Abcam), MITF-ab3 (mouse 1:100 dilution; NeoMarkers, Fremont, Calif., USA), DCT (rabbit 1:7,500; (22)) and Tyrosinase (rabbit 1:700; (22)). Bound antibodies were visualized with appropriate secondary antibodies, Alexa Fluor® 488 goat anti-rabbit IgG (H+L) (Molecular Probes, Inc., Eugene, Oreg., USA), Alexa Fluor® 594 mouse anti-rabbit IgG (H+L) (Molecular Probes), Alexa Fluor® 488 goat anti-mouse IgG (H+L) (Molecular Probes) or Alexa Fluor® 594 goat anti-mouse IgG (H+L) (Molecular Probes) at 37° C. for 30 min at 1:500 dilution with 5% goat serum. DAPI (Vector, Burlingame, Calif.; USA) was used as a counter-stain. The green fluorescence produced by Alexa 488®, red produced by Alexa 594®, and blue by DAPI was observed and captured using a Leica DMR B/D MLD fluorescence microscope (Leica, Wetzlar, Germany) and a Dage-MTI 3CCD 3-chip color video camera (Dage-MTI, Michigan City, Ind., USA).
Radioactive metabolic labeling and immunoprecipitation was performed as described previously (58). Where indicated, cells were irradiated with 21 mJ/cm^2 UVB and/or chemical agents were added from the “pulse” period to the “chase” period. Cell extracts were incubated with normal rabbit serum (Vector, Burlingame, Calif., USA) and were then incubated with protein G beads (GE Healthcare). The supernatants were incubated with SOX9 (Abcam) or GAPDH (Santa-Cruz) antibodies. The immune-complexes were separated by incubation with beads and were further washed with immunoprecipitate lysis buffer. The pellets were eluted, electrophoresed and visualized by autoradiography.

A375 cells = assay: Proliferation assay (crystal violet) in A375 melanoma cells; type: cell-based, human
Method: B16/F10 melanoma cells, SKMel 28 and A375 cells were obtained from the ATCC (Manassas, Va., USA). Mel Juso cells are a generous gift from Dr. Hornyak at the National Cancer Institute. A375, SK Mel 28 and B16 cells were grown at 37° C. under 5% CO2 in DMEM supplemented with 7% Fetal Bovine Serum (FBS) and penicillin (100 U/ml) and streptomycin (50 ug/ml). Mel Juso cells were grown at 37° C. under 5% CO2 in RPMI medium supplemented with 10% FBS and penicillin (100 U/ml) and streptomycin (50 ug/ml). Retinoic acid (10^−7M) and Prostaglandin D2 (0.5 ug/ml) were purchased from Sigma-Aldrich (St-Louis, Mo., USA).
The cells were transfected with a pBabe vector to give them a resistance to puromycin. At the same time, they were transfected with SOX9 cDNA or empty vector as control. Depending on the experiment, cells were also transfected the day after with SiRNA p21 or SiRNA Mock. After 10 to 15 d, the clones were fixed and stained with crystal violet. Proliferation was measured according to the optical density of the color.

PRAME = PRAME expression in melanoma cells (immunoprecipitation / immunoblotting); type: cell-based, human; conditions: A375 cells treated with PGD2 for 72 h
Method: (§2) SOX9 has been extensively studied in chondrocytes due to its key role for collagen II synthesis. […] First, S35 labeling was performed on A375 cells treated or not treated with PGD2 for 72 h. Proteins were then extracted and immunoprecipitated with SOX9 and PRAME antibodies (GAPDH was used as a control). SOX9 was increased after treatment with PGD2 whereas PRAME was decreased (FIG. 3B). […] A further proliferation assay with or without RA treatment, using PGD2 instead of the transfection with SOX9, was performed.
(§3) Cells were solubilized in M-PER® mammalian protein extraction reagent (Pierce Biotechnology, Rockford, Ill., USA) containing Protease Inhibitor cocktail (Roche, Mannheim, Germany). Protein concentrations of extracts were measured using the BCA protein assay kit (Pierce, Rockford, Ill., USA). Cell extracts (30 μg) were separated on SDS polyacrylamide gels (Invitrogen). After electrophoresis, proteins were transferred electrophoretically from the gels to Invitrolon PVDF transfer membranes (Invitrogen). […] Antigens were detected using ECL-plus Western Blotting Detection System (GE Healthcare). […]

melanoma cells = conditions: literature (14-17); cited from earlier work
SOX9 [2] = conditions: by promoting phosphorylation and nuclear translocation, literature (13); cited from earlier work
SOX9 [3] = assay: SOX9 expression in A375 cells (S35 labeling and immunoprecipitation / immunoblotting); type: cell-based, human; conditions: A375 cells treated with PGD2 for 72 h
Method: as §2, §3

SOX9 [4] = assay: SOX9 mRNA expression in normal human melanocytes by RT-PCR; type: cell-based; conditions: n-MP NHM, 4 h after ASP treatment
Text: Total RNA was reverse-transcribed using SuperScript III (Invitrogen). PCR reactions consisted of 25 cycles for β-actin and 35 cycles for SOX9 using Taq DNA polymerase (Invitrogen). PCR products for β-actin and SOX9 were 838 bp, and 288 bp, respectively, and were electrophoresed in parallel with DNA molecular mass markers (Invitrogen). Oligonucleotide primers used for PCR were based on mRNA sequences as follows: human SOX9 sense primer 5′-[…]-3′ (SEQ ID NO:5); human SOX9 antisense primer 5′-[…]-3′ (SEQ ID NO:6), β-actin sense primer 5′-[…]-3′ (SEQ ID NO:7); β-actin antisense primer 5′-[…]-3′ (SEQ ID NO:8). Each experiment was repeated at least in triplicate independently.

[5] = system: mouse melanocytes, melanoma cells, NHM; conditions: literature (38-40); cited from earlier work
[6] = NHM, 21 mJ/cm^2 UVB, pretreatment with H89

Question: With `C=C[C@@]1(C)CC(=O)[C@]2(O)[C@@]3(C)[C@@H](O)CCC(C)(C)[C@@H]3[C@H](O)[C@H](OC(C)=O)[C@@]2(C)O1` [forskolin] as the molecule, how does the DCT promoter activity (DCT promoter) read?
Answer: The DCT promoter activity was “no effect”.

Question: And the TYR promoter activity (TYR promoter)?
Answer: Its TYR promoter activity is “no effect”.

Question: For `O=S(=O)(NCCNC/C=C/c1ccc(Br)cc1)c1cccc2cnccc12` [H89], which “UVB-induced expression of SOX9” value (SOX9 [1]; [6]) is on record?
Answer: Its value is “prevented the increased expression”.

Question: And the “UVB-induced expression of SOX9 phosphorylated at serine 181” value (SOX9 [1]; [6])?
Answer: Its value is “prevented the increased expression”.

Question: With αMSH as the molecule, how does the “SOX9 regulation in human melanocytes” value (SOX9 [1]) read?
Answer: Its value is “up-regulated”.

Question: For `CC1=C(/C=C/C(C)=C/C=C/C(C)=C/C(=O)O)C(C)(C)CCC1` [RA, retinoic acid], which “proliferation of A375 cells” value (A375 cells; RA 10^−7 M alone) is on record?
Answer: Its value is “no effect”.

Question: What does the source list for `CCCCC[C@H](O)/C=C/[C@H]1C(=O)C[C@H](O)[C@@H]1C/C=C\CCCC(=O)O` [PGD2, prostaglandin D2]?
Answer: proliferation of A375 cells (A375 cells; PGD2 0.5 μg/μl alone): inhibited; PRAME expression (PRAME): decreased; proliferation of melanoma cells and other cancer cells (melanoma cells): decrease the proliferation; SOX9 activity in chondrocytes (SOX9 [2]): increase SOX9 activity; SOX9 expression (SOX9 [3]): increased

Question: For Δ2-PGJ2, which “proliferation of melanoma cells and other cancer cells” value (melanoma cells) is on record?
Answer: Its value is “decrease the proliferation”.

B1: ASP: recombinant mouse protein, antagonist of the melanocortin I receptor (MC1R) (protein, UniProt Q03288 23-131, looked up)
Agouti-signaling protein: HLALEETLGDDRSLRSNSSMNSLDFSSVSIVALNKKSKKISRKEAEKRKRSSKKKASMKKVARPPPPSPCVATRDSCKPPAPACCDPCASCQCRFFGSACTCRVLNPNC
Question: Which results are given for B1?
Answer: SOX9 expression (immunoblotting) (SOX9 [1]; n-MP NHM treated 48 h with ASP): significantly decreased; SOX9 regulation in human melanocytes (SOX9 [1]): down-regulated; expression level of SOX9 (RT-PCR) (SOX9 [4]): decreased; melanin formation [5]: inhibits melanin formation
